Data from patent publication US10562912B2 (C&C Research Laboratories, priority 2013, dated 2020).

Columns and labels:
Format in all cases: cell-based
[1] = test system: DU-145; assay: Cell growth inhibition assay, prostate cancer cell line DU-145; conditions: Homo sapiens, DU-145 prostate cancer cell line
Outline: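 Readout was CellTiter-Glo luminescence after 72–96 h of compound exposure at 37 °C, 5% CO2. Plating density was 3,000 cells/well for DU-145 and HCT116 and 5,000 cells/well for SW626. Controls were 0.1% DMSO wells and medium-only wells.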

[2] = target: T1, STAT3 (Homo sapiens, UniProt P40763); assay: STAT3 reporter gene assay (luciferase), LNCaP stable cell line (pSTAT3-TA-luc), IL-6 stimulation
T1 construct: plasmid pSTAT3-TA-luc), which contains a stably operating STAT3 promoter; endogenous in cells
Outline: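 LNCaP cells stably carrying pSTAT3-TA-luc, in RPMI1640 with 3% DCC-FBS, were treated with compound and then stimulated with 10 ng/mL IL-6 for 24–48 h at 37 °C. Luciferase activity was measured in lysates. A parallel plate measured viability by CellTiter-Glo, with stimulated 0.1% DMSO wells as the positive control.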

[3] = test system: LNCaP; assay: Cell growth inhibition assay, prostate cancer cell line LNCaP (medium with 10 ng/mL IL-6); conditions: Homo sapiens, medium supplemented with 10 ng/mL of IL-6, 10,000 cells/well

T1 sequence (P40763 whole entry): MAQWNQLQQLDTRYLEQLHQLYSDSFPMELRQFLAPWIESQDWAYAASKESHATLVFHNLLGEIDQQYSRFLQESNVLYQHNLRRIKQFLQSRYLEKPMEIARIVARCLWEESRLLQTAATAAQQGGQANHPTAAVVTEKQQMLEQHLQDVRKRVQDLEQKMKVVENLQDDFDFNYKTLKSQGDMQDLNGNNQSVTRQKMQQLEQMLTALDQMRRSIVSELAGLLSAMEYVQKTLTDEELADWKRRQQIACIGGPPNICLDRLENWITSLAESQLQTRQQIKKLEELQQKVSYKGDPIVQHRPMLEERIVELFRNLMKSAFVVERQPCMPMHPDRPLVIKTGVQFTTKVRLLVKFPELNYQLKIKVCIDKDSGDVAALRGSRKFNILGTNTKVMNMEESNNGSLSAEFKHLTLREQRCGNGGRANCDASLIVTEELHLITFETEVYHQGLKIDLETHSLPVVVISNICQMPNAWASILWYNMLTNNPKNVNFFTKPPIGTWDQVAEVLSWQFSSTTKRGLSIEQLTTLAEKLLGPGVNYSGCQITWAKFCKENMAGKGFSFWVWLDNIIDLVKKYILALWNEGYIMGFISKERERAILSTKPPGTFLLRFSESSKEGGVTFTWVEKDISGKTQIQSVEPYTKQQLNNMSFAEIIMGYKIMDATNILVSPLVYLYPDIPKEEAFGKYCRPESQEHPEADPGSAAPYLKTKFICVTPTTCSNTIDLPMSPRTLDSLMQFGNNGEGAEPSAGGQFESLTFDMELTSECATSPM

| IC50 [1] [µM] | IC50 [2] [µM] | IC50 [3] [µM] | SMILES |
| --- | --- | --- | --- |
| < 0.005 | 0.01 | < 0.005 | CC(C)c1ccc(C(C)(C)c2cc(Cl)cc(NC(=O)c3cc4cc(NS(C)(=O)=O)c(Cl)cc4s3)c2)s1 [Example 180, 6-chloro-N-(3-chloro-5-(2-(5-isopropylthiophen-2-yl)propan-2-yl)phenyl)-5-(methylsulfonamido)benzo[b]thiophene-2-carboxamide] |
| 0.005 | 0.005 | 0.006 | Cc1csc(C(C)(C)c2cc(Cl)cc(NC(=O)c3cc4cc(NS(C)(=O)=O)c(Cl)cc4s3)c2)c1 [Example 181, 6-chloro-N-(3-chloro-5-(2-(4-methylthiophen-2-yl)propan-2-yl)phenyl)-5-(methylsulfonamido)benzo[b]thiophene-2-carboxamide] |
| 0.005 | 0.012 | 0.018 | CC(C)(c1ccc(F)cc1)c1cc(Cl)cc(NC(=O)c2cc3cc(NS(C)(=O)=O)c(Cl)cc3s2)c1 [Example 182, 6-chloro-N-(3-chloro-5-(2-(4-fluorophenyl)propan-2-yl)phenyl)-5-(methylsulfonamido)benzo[b]thiophene-2-carboxamide] |
| 0.005 | 0.01 | 0.013 | COc1ccc(C(C)(C)c2cc(Cl)cc(NC(=O)c3cc4cc(NS(C)(=O)=O)c(Cl)cc4s3)c2)cc1 [Example 183, 6-chloro-N-(3-chloro-5-(2-(4-methoxyphenyl)propan-2-yl)phenyl)-5-(methylsulfonamido)benzo[b]thiophene-2-carboxamide] |
| 0.04 | 0.042 | 0.35 | CC(C)(c1ccc(Cl)cc1)c1cc(Cl)cc(NC(=O)c2cc3cc(Cl)c(NS(C)(=O)=O)cc3s2)c1 [Example 184, 5-chloro-N-(3-chloro-5-(2-(4-chlorophenyl)propan-2-yl)phenyl)-6-(methylsulfonamido)benzo[b]thiophene-2-carboxamide] |
| 0.007 | 0.007 | 0.072 | COCCS(=O)(=O)Nc1cc2cc(C(=O)Nc3cc(Cl)cc(C(C)(C)c4ccc(Cl)cc4)c3)sc2cc1Cl [Example 185, 6-chloro-N-(3-chloro-5-(2-(4-chlorophenyl)propan-2-yl)phenyl)-5-((2-methoxyethyl)sulfonamido)benzo[b]thiophene-2-carboxamide] |
| 0.023 | 0.1 | 0.039 | CC(C)(c1cc(Cl)cc(NC(=O)c2cc3cc(NS(C)(=O)=O)c(Cl)cc3s2)c1)c1ccc(C#N)s1 [Example 186, 6-chloro-N-(3-chloro-5-(2-(5-cyanothiophen-2-yl)propan-2-yl)phenyl)-5-(methylsulfonamido)benzo[b]thiophene-2-carboxamide] |
| 0.042 | 0.11 | 0.1 | CCn1cccc1C(C)(C)c1cc(Cl)cc(NC(=O)c2cc3cc(NS(C)(=O)=O)ccc3s2)c1 [Example 187, N-(3-chloro-5-(2-(1-ethyl-1H-pyrrol-2-yl)propan-2-yl)phenyl)-5-(methylsulfonamido)benzo[b]thiophene-2-carboxamide] |
| 0.026 | 0.054 | 0.056 | CC(C)(c1ccc(Cl)cc1)c1cc(Cl)cc(NC(=O)c2cc3cc(NS(=O)(=O)CCO)c(Cl)cc3s2)c1 [Example 188, 6-chloro-N-(3-chloro-5-(2-(4-chlorophenyl)propan-2-yl)phenyl)-5-((2-hydroxyethyl)sulfonamido)benzo[b]thiophene-2-carboxamide] |
| 0.74 | 0.54 | 2.2 | CC(C)(c1ccncc1)c1cc(Cl)cc(NC(=O)c2cc3cc(NS(C)(=O)=O)ccc3s2)c1 [Example 191, N-(3-chloro-5-(2-(pyridin-4-yl)propan-2-yl)phenyl)-5-(methylsulfonamido)benzo[b]thiophene-2-carboxamide] |
| 0.016 | 0.012 | 0.065 | CC(C)Oc1cc(OC(F)(F)F)cc(C(C)(C)c2cc(Cl)cc(NC(=O)c3cc4cc(NS(=O)(=O)CC5CCCO5)ccc4s3)c2)c1 (stereo not drawn) [Example 197, N-(3-chloro-5-(2-(3-isopropoxy-5-(trifluoromethoxy)phenyl)propan-2-yl)phenyl)-5-(((tetrahydrofuran-2-yl)methyl)sulfonamido)benzo[b]thiophene-2-carboxamide] |
| 0.017 | 0.03 | 0.046 | CC(C)Oc1cc(OC(F)(F)F)cc(C(C)(C)c2cc(Cl)cc(NC(=O)c3cc4cc(NS(=O)(=O)CC5CCOCC5)ccc4s3)c2)c1 [Example 198, N-(3-chloro-5-(2-(3-isopropoxy-5-(trifluoromethoxy)phenyl)propan-2-yl)phenyl)-5-(((tetrahydro-2H-pyran-4-yl)methyl)sulfonamido)benzo[b]thiophene-2-carboxamide] |
| 0.011 | 0.018 | 0.025 | CC(C)Oc1cc(OC(F)(F)F)cc(C(C)(C)c2cc(I)cc(NC(=O)c3cc4cc(NS(C)(=O)=O)ccc4s3)c2)c1 [Example 213, N-(3-iodo-5-(2-(3-isopropoxy-5-(trifluoromethoxy)phenyl)propan-2-yl)phenyl)-5-(methylsulfonamido)benzo[b]thiophene-2-carboxamide] |
| 0.007 | 0.012 | 0.013 | CN(c1ccc2sc(C(=O)Nc3cc(Cl)cc(Oc4ccc(Cl)cc4)c3)cc2c1)S(C)(=O)=O [Example 220, N-(3-chloro-5-(4-chlorophenoxy)phenyl)-5-(N-methylmethylsulfonamido)benzo[b]thiophene-2-carboxamide] |
| 0.008 | 0.011 | 0.011 | CN(c1ccc2sc(C(=O)Nc3cc(Cl)cc(C(C)(C)c4ccc(Cl)cc4)c3)cc2c1)S(C)(=O)=O [Example 221, N-(3-chloro-5-(2-(4-chlorophenyl)propan-2-yl)phenyl)-5-(N-methylmethylsulfonamido)benzo[b]thiophene-2-carboxamide] |
| > 1.1 | 6.1 | > 1.1 | CC(C)Oc1cc(OC(F)(F)F)cc(C(C)(C)c2cc(Cl)cc(NC(=O)C3=Cc4cc(NS(C)(=O)=O)ccc4S3(=O)=O)c2)c1 [Example 222, N-(3-chloro-5-(2-(3-isopropoxy-5-(trifluoromethoxy)phenyl)propan-2-yl)phenyl)-5-(methylsulfonamido)benzo[b]thiophene-2-carboxamide 1,1-dioxide] |
| 0.005 | 0.24 | 0.17 | CC(C)Oc1cc(OC(F)(F)F)cc(C(C)(C)c2cc(Cl)cc(NC(=O)c3cc4cc(NS(C)(=O)=O)ccc4[s+]3[O-])c2)c1 (stereo not drawn) [Example 223, N-(3-chloro-5-(2-(3-isopropoxy-5-(trifluoromethoxy)phenyl)propan-2-yl)phenyl)-5-(methylsulfonamido)benzo[b]thiophene-2-carboxamide 1-oxide] |
| 0.034 | 0.051 | 0.15 | CS(=O)(=O)Nc1ccc2sc(C(=O)Nc3cc(Cl)cc(-c4ccc(F)cc4F)n3)cc2c1 [Example 331, N-(4-chloro-6-(2,4-difluorophenyl)pyridin-2-yl)-5-(methylsulfonamido)benzo[b]thiophene-2-carboxamide] |
| 0.042 | 0.061 | 0.17 | CS(=O)(=O)Nc1ccc2sc(C(=O)Nc3cc(Cl)cc(-c4ccsc4)c3)cc2c1 [Example 332, N-(3-chloro-5-(thiophen-3-yl)phenyl)-5-(methylsulfonamido)benzo[b]thiophene-2-carboxamide] |
| 0.004 | 0.016 | 0.015 | CS(=O)(=O)Nc1cc2cc(C(=O)Nc3cc(Cl)cc(-c4ccc(F)cc4F)c3)sc2cc1Cl [Example 333, 6-chloro-N-(5-chloro-2′,4′-difluoro-[1,1′-biphenyl]-3-yl)-5-(methylsulfonamido)benzo[b]thiophene-2-carboxamide] |
| 0.059 | 0.096 | 0.14 | Cn1cccc1-c1cc(Cl)cc(NC(=O)c2cc3cc(NS(C)(=O)=O)ccc3s2)c1 [Example 334, N-(3-chloro-5-(1-methyl-1H-pyrrol-2-yl)phenyl)-5-(methylsulfonamido)benzo[b]thiophene-2-carboxamide] |
| > 1.1 | 5.7 | > 1.1 | CS(=O)(=O)Nc1ccc2sc(C(=O)Nc3cc(Cl)cc(-c4ccc(F)cc4F)c3)c(O)c2c1 [Example 335, N-(5-chloro-2′,4′-difluoro-[1,1′-biphenyl]-3-yl)-3-hydroxy-5-(methylsulfonamido)benzo[b]thiophene-2-carboxamide] |
| 0.065 | 0.13 | 0.21 | CS(=O)(=O)Nc1ccc2sc(C(=O)Nc3cc(Cl)cc(-c4cccs4)c3)cc2c1 [Example 336, N-(3-chloro-5-(thiophen-2-yl)phenyl)-5-(methylsulfonamido)benzo[b]thiophene-2-carboxamide] |
| 0.43 | 0.27 | 0.94 | CS(=O)(=O)Nc1ccc2sc(C(=O)Nc3cc(-c4ccc(F)cc4F)cc(Cl)n3)cc2c1 [Example 337, N-(6-chloro-4-(2,4-difluorophenyl)pyridin-2-yl)-5-(methylsulfonamido)benzo[b]thiophene-2-carboxamide] |

| SMILES | IC50 [1] [µM] | IC50 [2] [µM] | IC50 [3] [µM] |
| --- | --- | --- | --- |
| CC(C)Oc1cc(OC(F)(F)F)cc(C(C)(C)c2cc(Cl)cc(NC(=O)c3cc4cc(OP(=O)(O)O)ccc4s3)c2)c1 [Example 193, 2-((3-chloro-5-(2-(3-isopropoxy-5-(trifluoromethoxy)phenyl)propan-2-yl)phenyl)carbamoyl)benzo[b]thiophen-5-yl dihydrogen phosphate] | 0.39 | 0.38 | 0.99 |
